Our source for the IC50 values is US11370774B2, “Substituted benzofuran, benzopyrrole, benzothiophene, and structurally related complement inhibitors” (BioCryst Pharmaceuticals, Inc., priority 2018, dated 2022).

This experiment has as its target Factor D (Homo sapiens (Human), UniProt P00746). Put plainly: Factor D esterolytic assay (Z-Lys-SBzl substrate, DTNB, 405 nm). It counts as biochemical. Conditions: Z-Lys-SBzl 1.29 mM, pH 7.5, 10% DMSO, tested a minimum of three times, read-out: Measured Ki (IC50) Value for Compounds: IC50. The gist of the method:
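Thioester hydrolysis (Z-Lys-SBzl, 1.29 mM) by human Factor D ([…]) detected through DTNB color at 405 nm over 600 sec, minus 690 nm background. Buffer: 100 mM HEPES pH 7.5, 500 mM NaCl, 10% DMSO; optional room-temperature preincubation before substrate. IC50 derived from percent rate inhibition; at least three runs.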

Factor D, sequence (P00746 26-253): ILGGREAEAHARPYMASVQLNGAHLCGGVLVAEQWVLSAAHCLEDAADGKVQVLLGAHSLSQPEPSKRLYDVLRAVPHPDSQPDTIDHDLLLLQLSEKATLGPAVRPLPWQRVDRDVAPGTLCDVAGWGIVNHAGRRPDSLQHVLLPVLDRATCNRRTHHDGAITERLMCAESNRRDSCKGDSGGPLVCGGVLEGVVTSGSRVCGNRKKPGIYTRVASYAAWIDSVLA

For the molecule `NCc1cccc(-c2nc(C(=O)Nc3cscc3CC(=O)O)cc3ccoc23)c1` [Compound 145c, 2-(4-(7-(3-(aminomethyl)phenyl)furo[2,3-c]pyridine-5-carboxamido)thiophen-3-yl)acetic acid], the IC50 was less than 1000 nM.

Regarding `NCc1nccc(-c2cc(COc3ccc(F)cc3CC(=O)O)c(F)c3ccoc23)c1F` [Compound 388d, 2-(2-((7-(2-(aminomethyl)-3-fluoropyridin-4-yl)-4-fluorobenzofuran-5-yl)methoxy)-5-fluorophenyl)acetic acid], the IC50 is less than 1000 nM.

Take `NCc1cc(-c2cc(COc3ccccc3CC(=O)O)cc3[nH]ccc23)ccn1` [Compound 211e, 2-(2-((4-(2-(aminomethyl)pyridin-4-yl)-1H-indol-6-yl)methoxy)phenyl)acetic acid]: the IC50 is less than 1000 nM.

With `Cc1ccc(S(=O)(=O)n2ccc3c(-c4cccc(CN)c4)cc(COc4ccccc4CC(=O)O)cc32)cc1` [Compound 40e, 2-(2-((4-(3-(aminomethyl)phenyl)-1-tosyl-1H-indol-6-yl)methoxy)phenyl)acetic acid], the concentration for half-maximal inhibition (IC50) was less than 1000 nM.

Consider `Cc1cc2cc(COc3ccccc3CC(=O)O)cc(-c3ccnc(CN)c3)c2o1` [Compound 112c, 2-(2-((7-(2-(aminomethyl)pyridin-4-yl)-2-methylbenzofuran-5-yl)methoxy)phenyl)acetic acid], for which the IC50 is less than 1000 nM.

Consider `CC(C)S(=O)(=O)n1ccc2c(-c3cccc(CN)c3F)cc(COc3ccccc3CC(=O)O)cc21` [Compound 229b, 2-(2-((4-(3-(aminomethyl)-2-fluorophenyl)-1-(isopropylsulfonyl)-1H-indol-6-yl)methoxy)phenyl)acetic acid], for which the half-maximal inhibitory concentration (IC50) was less than 1000 nM.

As for `COc1cncc(NCc2cc3cc(COc4ccccc4CC(=O)O)cc(-c4cccc(CN)c4)c3o2)c1` [Compound 279c, 2-(2-((7-(3-(aminomethyl)phenyl)-2-(((5-methoxypyridin-3-yl)amino)methyl)benzofuran-5-yl)methoxy)phenyl)acetic acid], the IC50 was less than 1000 nM.

On to `Cc1ccc(CC(=O)O)c(OCc2cc(-c3cccc(CN)c3F)c3ccn(C)c3c2)c1` [Compound 359b, 2-(2-((4-(3-(aminomethyl)-2-fluorophenyl)-1-methyl-1H-indol-6-yl)methoxy)-4-methylphenyl)acetic acid], for which the IC50 is less than 1000 nM.

As for `COCc1cc2cc(COc3ccc(F)cc3CC(=O)O)cc(-c3cccc(CN)c3F)c2o1` [Compound 463b, 2-(2-((7-(3-(aminomethyl)-2-fluorophenyl)-2-(methoxymethyl)benzofuran-5-yl)methoxy)-5-fluorophenyl)acetic acid], the IC50 is less than 1000 nM.

With `CS(=O)(=O)n1ccc2c(-c3ccnc(CN)c3)cc(COc3ccccc3CC(=O)O)cc21` [Compound 211c, 2-(2-((4-(2-(aminomethyl)pyridin-4-yl)-1-(methylsulfonyl)-1H-indol-6-yl)methoxy)phenyl)acetic acid], the IC50 is less than 1000 nM.

`NCc1cccc(-c2cc(COc3c(F)cccc3CC(=O)O)cc3ccoc23)c1F` [Compound 502c, 2-(2-((7-(3-(aminomethyl)-2-fluorophenyl)benzofuran-5-yl)methoxy)-3-fluorophenyl)acetic acid]: the IC50 was less than 1000 nM.

Take `NCc1cccc(-c2cc(COc3cc(CC4CC4)ccc3CC(=O)O)cc3ccoc23)c1` [Compound 261c, 2-(2-((7-(3-(aminomethyl)phenyl)benzofuran-5-yl)methoxy)-4-(cyclopropylmethyl)phenyl)acetic acid]: the IC50 is less than 1000 nM.

Turning to `NCc1cccc(-c2cc(COc3cc(N)ccc3CC(=O)O)cc3ccoc23)c1` [Compound 197c, 2-(4-amino-2-((7-(3-(aminomethyl)phenyl)benzofuran-5-yl)methoxy)phenyl)acetic acid], the half-maximal inhibitory concentration (IC50) was less than 1000 nM.

Take `COc1ccc(CC(=O)O)c(OCc2cc(-c3ccnc(CN)c3F)c3oc(F)cc3c2)c1` [Compound 483c, 2-(2-((7-(2-(aminomethyl)-3-fluoropyridin-4-yl)-2-fluorobenzofuran-5-yl)methoxy)-4-methoxyphenyl)acetic acid]: the IC50 is less than 1000 nM.
